# Measured values taken from PMC8438664 (ACS Infectious Diseases, 2021).
# What was measured:
# [1] = test system: conditionally immortalized proximal tubule epithelial cells (ciPTECs) overexpressing OAT-1; experiment: ciPTEC cell viability assay; assay type: cell-based, human; conditions: 24 h, relative mitochondrial activity (PrestoBlue)
# [2] = lipid II of VanA or VanB positive strains; cited from earlier work
compound,measurement,setting,value
CN[C@H](CC(C)C)C(=O)N[C@H]1C(=O)N[C@@H](CC(N)=O)C(=O)N[C@H]2C(=O)N[C@H]3C(=O)N[C@H](C(=O)N[C@H](C(=O)O)c4cc(O)cc(O)c4-c4cc3ccc4O)[C@H](O)c3ccc(c(Cl)c3)Oc3cc2cc(c3O[C@@H]2O[C@H](CO)[C@@H](O)[C@H](O)[C@H]2O[C@H]2C[C@](C)(N)[C@H](O)[C@H](C)O2)Oc2ccc(cc2Cl)[C@H]1O [Vancomycin],viability at a concentration of 1 mM,[1],> 50%
same,fold reduction in binding affinity on mutation of D-Ala-D-Ala to D-Ala-D-Lac,[2],> 1000 fold
